Measurements as given in patent US11179450B2, “Long chain antigen containing interepitope sequence that promotes antigen presentation to T cells” (MIE UNIVERSITY, priority 2013, dated 2021).

Columns and labels:
[1] = system: CD8+ T cells specific to MA p265, NY p81 and mERK2 9m; assay: Specific CD8+ T cell induction by CHP/long chain peptide vaccines in mice, intracellular cytokine staining of spleen cells; format: in vivo, BALB/c mice
Source text: Long chain peptide antigens MEN, all containing three types of mouse CD8+ T cell epitope sequences (MA p265 (Sequence No. 27), NY p81 (Sequence No. 29), and mERK2 9m (Sequence No. 28)), were synthesized. The interepitope sequences between the respective epitopes were respectively six consecutive tyrosines (Y6) (Sequence No. 1), six consecutive glycines (G6) (Sequence No. 2), six consecutive prolines (P6) (Sequence No. 3), or six consecutive threonines (T6) (Sequence No. 4). Each long chain peptide antigen was complexed with cholesterol-modified pullulan (CHP), which is a type of delivery system, and administered as a vaccine to a mouse. In the process of administration, CpG oligo DNA was coadministered as an adjuvant. Spleen cells were collected one week after the final administration and the frequencies of CD8+ T cells specific to the respective epitope sequences were measured by an intracellular cytokine staining method.
Long chain peptide antigens NME, all containing three types of mouse CD8+ T cell epitope sequences (MA p265 (Sequence No. 27), NY p81 (Sequence No. 29), and mERK2 9m (Sequence No. 28)), were synthesized. The antigens differ from the MEN sequences shown in FIG. 1 in the order of the three types of epitopes. The interepitope sequences between the respective epitopes were respectively six consecutive tyrosines (Y6) (Sequence No. 5), six consecutive glycines (G6) (Sequence No. 6), or six consecutive prolines (P6) (Sequence No. 7). Vaccines containing the respective long chain peptide antigens were administered to mice in the same manner as in FIG. 1 and the frequencies of CD8+ T cells specific to the respective epitope sequences were measured by the intracellular cytokine staining method.
Long chain peptide antigens MEN, ENM, and NME, all containing three types of mouse CD8+ T cell epitope sequences (MA p265 (Sequence No. 27), NY p81 (Sequence No. 29), and mERK2 9m (Sequence No. 28)), were synthesized. MEN, ENM, and […] in the order of the three types of epitopes. The interepitope sequences between the respective epitopes were each six consecutive tyrosines (Y6) (Sequence Nos. 1, 5 and 8). Vaccines containing the respective long chain peptide antigens were administered to mice in the same manner as in FIG. 1 and the frequencies of CD8+ T cells specific to the respective epitope sequences were measured by the intracellular cytokine staining method.
Each long chain peptide was dissolved in dimethyl sulfoxide (DMSO) at a concentration of 10 mg/mL. CHP was dissolved in 6 M urea-containing phosphate buffered saline (PBS) at a concentration of 10 mg/mL 1 mL (10 mg) of the long chain peptide solution and 20 mL (200 mg) of the CHP solution were mixed and left to stand at room temperature overnight in a dark place. The liquid mixture was transferred into a dialysis membrane (molecular weight cutoff: 3,500; Thermo Fisher Scientific, Inc.) and dialyzed for 2 hours to overnight at 4° C. against 0.6 M urea-containing PBS of a volume ratio of not less than 100 times as the dialysis outer solution. Dialysis was then performed for 2 hours to overnight at 4° C. against 0.06 M urea-containing PBS of a volume ratio of not less than 100 times as the dialysis outer solution. Dialysis was performed again for 2 hours to overnight at 4° C. against PBS of a volume ratio of not less than 100 times as the dialysis outer solution. The dialyzed inner solution was collected, filtered through a filtration sterilization filter of 0.45 μm or 0.22 μm pore size, and thereafter the UV absorption at 280 nm was measured to determine the final concentration of the long chain peptide from its molecular extinction coefficient.
Each CHP/long chain peptide complex as the vaccine and the CpG oligo DNA as the adjuvant were administered at the same time to a mouse. Administration was performed by subcutaneous injection on the back of the mouse. […]

[2] = system: F4/80+ cells (macrophages); assay: In vitro uptake of FAM-labeled long chain peptide antigens by antigen-presenting cells (macrophages); format: cell-based; conditions: FIG. 8, complexed with CHP, 10 μg/mL, mouse spleen cells, 60 minutes, in comparison to G6 and P6
Source text: Long chain peptide antigens MEN, all containing three types of mouse CD8+ T cell epitope sequences (MA p265 (Sequence No. 27), NY p81 (Sequence No. 29), and mERK2 9m (Sequence No. 28)), were synthesized. The interepitope sequences between the respective epitopes were respectively six consecutive tyrosines (Y6), six consecutive glycines (G6), or six consecutive prolines (P6) (Sequence Nos. 1-3). Each long chain peptide antigen, labeled with the fluorescent dye FAM, was complexed with CHP and administered in vitro to mouse dendritic cells and mouse macrophages. After 60 minutes, the fluorescence uptakes into the respective cells were measured by flow cytometry with the P5 fraction in the figure being deemed to correspond to the dendritic cells and the P6 fraction in the figure being deemed to correspond to the macrophages.
In vitro uptake of the long chain peptide antigens by antigen-presenting cells was measured as follows. Each long chain peptide labeled with a fluorescent dye was complexed with CHP by the method described above. Spleen cells separated from a normal mouse were added at 1×10^6 cells/0.5 mL/well to a 24-well plate. […] The uptake of the fluorescence-labeled long chain peptide antigens by CD11c^+ cells (dendritic cells) and F4/80^+ cells (macrophages) were observed using flow cytometry.

For “SNPARYEFLYYYYYYQYIHSANVLYYYYYYRGPESRLL (Long chain peptide antigen, containing three types of mouse CD8+ T cell epitope sequences (MA p265, NY p81, and mERK2 9m)) [MEN(Y6)]”, the “induction of specific CD8+ T cells corresponding to all three types of epitopes” value ([1]; FIG. 1, MEN antigens complexed with CHP, subcutaneous, CpG oligo DNA adjuvant, spleen cells one week after final administration) was “clearly induced”, the “induction of specific CD8+ T cells corresponding to all three types of epitopes” value ([1]; FIG. 4, MEN, ENM, NME epitope orders, interepitope sequence fixed at Y6) was “clearly induced” and the “number of tyrosines of the interepitope sequence, judged in view of the results for the three types of epitopes” value ([1]; FIG. 6, comparing one to six tyrosines) was “best”. For the same sequence, the “number of tyrosines of the interepitope sequence, judged in view of the results for the three types of epitopes” value ([1]; FIG. 7, comparing five to ten tyrosines) was “best” and the “fluorescence uptake into macrophages” value [2] was “significantly higher”.
